Assay results as given in patent US20260008760A1, “DIPEPTIDYL PEPTIDASE 1 INHIBITORS AND USES THEREOF” (Insmed Incorporated, priority 2024, published 2026).
Several values for one entry are separate records, joined by “and”; a condition that tells them apart may be missing. Equal entries are not always repeated.

Columns and labels:
[1] = target: T1, active mouse DPP1 enzyme (Mus musculus, UniProt P97821); assay: Mouse DPP1 Enzyme IC50 Assay; type: biochemical; details: active mouse DPP1 enzyme, H-Gly-Arg-AMC substrate, 10 minutes pre-incubation at 37° C., pH 5.5; average of n runs; read-out: Avg. IC50 (Mouse DPP1 enzyme IC50 value ranges)
T1 construct: Each subunit is composed of an N-terminal fragment, a heavy chain and a light chain; purchased R&D Systems
Procedure: Example 96: Mouse DPP1 Enzyme IC50 Assay
Test articles were applied to active mouse DPP1 enzyme (R&D Systems; Minneapolis, MN) in Assay Buffer (50 mM MES pH 5.5, 50 mM NaCl, 5 mM DTT) in a total reaction volume of 125 μL. 25 μL of compound in Assay Buffer plus […] was first added to 50 μL of active mouse DPP1 enzyme at a concentration of 62.5 pg/μL and allowed to pre-incubate for 10 minutes at 37° C. after which 50 μL of […] H-Gly-Arg-AMC substrate (Bachem; St. Torrance, CA) was added, giving final substrate concentration of 400 µM and a final DMSO concentration of […]. Substrate cleavage was measured for 90 minutes at 37° C., with fluorescence at Excitation/Emission 350/450 nm measured every 5 minutes. DPP1 concentration was interpolated based on its activity relative to a standard curve of recombinant active mouse DPP enzyme. IC50 values for each compound were calculated via the XLFit (IDBS Version 5.3.1.3) Add-On to Microsoft Excel using the four parameter fit equation y=(A+((B−A)/(1+((C/x)^D)))), which appears as equation number 205 (4 Parameter Logistic Model or Sigmoidal Dose-Response Model) in XLFit. Default constraints were used for each Parameter. IC50 was defined as the compound concentration at which 50% of enzyme activity was inhibited when compared to the no-compound control.
In Table 2, *** represent average IC50≤5 nM, ** represents average IC50 in the range of 5-20 nM, and * represents average IC50 in the range of ≥20 nM, where the designations were made solely based on the average value without taking into account of the standard deviations.

[2] = target: DPP1 in HL-60 cells (Homo sapiens, UniProt P53634); assay: DPP1 Cell IC50 assay; type: cell-based; parameters: host or cells: HL-60 cells; details: 60 min pre-incubation, H-Gly-Phe-AFC substrate, average of n runs, read-out: Avg. IC50 (DPP1 Cell IC50 value ranges)
Procedure, shortened: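 Intracellular DPP1 activity read as AFC fluorescence (Ex/Em 400/505 nm) after 30 min with H-Gly-Phe-AFC (500 μM stock), following 60 min compound pre-incubation at 37° C with HL-60 cells at 5×10^5 live cells per mL in PBS. IC50 by 4-parameter fit against DMSO-only controls.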

[3] = target: human DPP1 enzyme (Homo sapiens, UniProt P53634); assay: Human DPP1 Enzyme IC50 Assay; type: biochemical; parameters: was first proteolytically processed into its mature form using recombinant human cathepsin L; purchased R&D Systems; details: activated recombinant human DPP1, 400 μM H-Gly-Arg-AMC, 10 minutes pre-incubation at 37° C., pH 6.0; average of n runs; read-out: Avg. IC50 (Human DPP1 enzyme IC50 value ranges)
Procedure, shortened: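 IC50 came from a four-parameter fit of activity relative to no-compound control, with fluorescence (Ex 350/Em 450 nm) read every 5 min for 90 min at 37 °C using 400 μM final H-Gly-Arg-AMC. Cathepsin L-matured human recombinant DPP1 was preincubated 10 min with compound at pH 6.0 (MES, DTT, 1% DMSO).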

Sequence of human DPP1 enzyme (P53634 25-134 limits assumed): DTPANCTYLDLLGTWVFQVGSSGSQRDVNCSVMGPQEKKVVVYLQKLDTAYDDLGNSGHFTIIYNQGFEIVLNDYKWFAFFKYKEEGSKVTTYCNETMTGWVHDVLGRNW
Sequence of human DPP1 enzyme (P53634 231-394 limits assumed): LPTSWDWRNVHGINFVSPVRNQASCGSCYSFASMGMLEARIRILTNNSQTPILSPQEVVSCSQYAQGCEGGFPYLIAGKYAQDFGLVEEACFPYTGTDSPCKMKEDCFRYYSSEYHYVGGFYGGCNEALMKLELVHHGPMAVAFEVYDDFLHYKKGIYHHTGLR
Sequence of human DPP1 enzyme (P53634 395-463 limits assumed): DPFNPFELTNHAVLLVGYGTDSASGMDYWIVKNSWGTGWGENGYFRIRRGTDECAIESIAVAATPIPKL
T1 sequence (P97821 25-134 limits assumed): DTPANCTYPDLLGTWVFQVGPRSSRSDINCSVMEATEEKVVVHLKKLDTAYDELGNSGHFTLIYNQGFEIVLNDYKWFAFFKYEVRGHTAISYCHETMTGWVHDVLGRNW
T1 sequence (P97821 231-393 limits assumed): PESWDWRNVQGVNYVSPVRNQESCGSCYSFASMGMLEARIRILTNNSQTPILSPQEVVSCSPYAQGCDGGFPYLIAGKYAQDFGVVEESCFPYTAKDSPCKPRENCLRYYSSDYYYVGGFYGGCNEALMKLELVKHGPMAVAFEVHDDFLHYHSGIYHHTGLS
T1 sequence (P97821 394-462 limits assumed): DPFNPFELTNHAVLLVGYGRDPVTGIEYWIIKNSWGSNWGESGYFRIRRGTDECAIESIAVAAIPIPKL
Sequence of DPP1 in HL-60 cells (P53634 25-463): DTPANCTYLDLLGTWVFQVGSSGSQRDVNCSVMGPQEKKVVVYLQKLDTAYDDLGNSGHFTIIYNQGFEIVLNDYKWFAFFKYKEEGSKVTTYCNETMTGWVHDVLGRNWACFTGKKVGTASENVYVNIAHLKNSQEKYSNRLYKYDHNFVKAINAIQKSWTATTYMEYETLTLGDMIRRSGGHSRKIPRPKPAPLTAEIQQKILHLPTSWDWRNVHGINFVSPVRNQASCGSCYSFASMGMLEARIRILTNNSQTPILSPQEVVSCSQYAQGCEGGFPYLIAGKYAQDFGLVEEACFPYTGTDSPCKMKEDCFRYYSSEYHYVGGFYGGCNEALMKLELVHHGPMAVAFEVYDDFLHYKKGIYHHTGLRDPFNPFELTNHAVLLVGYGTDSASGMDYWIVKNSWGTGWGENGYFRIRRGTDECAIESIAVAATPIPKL

| IC50 [1] [nM] | IC50 [2] | IC50 [3] [nM] | SMILES |
| --- | --- | --- | --- |
| > 20 | > 2.5 nM and 1 to 2.5 nM | > 15 | Cc1cn2cc(-c3ccc(C[C@@H](C#N)NC(=O)[C@@H]4CNCCCCO4)cc3)cc2c(C)n1 [Compound A27, (2S)—N-[(1S)-1-cyano-2-(4-{1,3-dimethylpyrrolo[1,2-a]pyrazin-7-yl}phenyl)ethyl]-1,4-oxazocane-2-carboxamide] |
| > 20 | > 2.5 nM | 5 to 15 | CN1CCC(n2ncc3ccc(-c4ccc(C[C@@H](C#N)NC(=O)[C@@H]5CNCCCO5)c(F)c4)cc32)CC1 [Compound A3, (2S)—N-[(1S)-1-cyano-2-{2-fluoro-4-[1-(1-methylpiperidin-4-yl)indazol-6-yl]phenyl}ethyl]-1,4-oxazepane-2-carboxamide] |
| < 5 | < 1 nM | < 5 | CO[C@@H]1CCNC[C@@H](C(=O)N[C@H](C#N)Cc2ccc(-c3ccc(C#N)cc3)cc2F)OC1 [Compound F4, (2S,7R)—N—((S)-1-cyano-2-(4′-cyano-3-fluoro-[1,1′-biphenyl]-4-yl)ethyl)-7-methoxy-1,4-oxazocane-2-carboxamide] |

Further lines, the compound ahead of its results:

| SMILES | IC50 [1] [nM] | IC50 [2] | IC50 [3] [nM] |
| --- | --- | --- | --- |
| CN1CCN(Cc2ccc(-c3ccc(C[C@@H](C#N)NC(=O)[C@@H]4CNCCCO4)cc3)cc2)CC1 [Compound 9, (2S)—N-[(1S)-1-cyano-2-{4′-[(4-methylpiperazin-1-yl)methyl]-[1,1′-biphenyl]-4-yl}ethyl]-1,4-oxazepane-2-carboxamide] | > 20 | > 2.5 nM | > 15 |
| CN1C(=O)C2(CCCN(C3COC3)C2)c2cc(-c3ccc(C[C@@H](C#N)NC(=O)[C@@H]4CNCCCO4)cc3)ccc21 (stereo partly drawn) [Compound 28, (2S)—N-[(1S)-1-cyano-2-{4-[1-methyl-1′-(oxetan-3-yl)-2-oxospiro[indole-3,3′-piperidin]-5-yl]phenyl}ethyl]-1,4-oxazepane-2-carboxamide] | > 20 | > 2.5 nM | > 15 |
| Cc1nc(-c2ccc(C[C@@H](C#N)NC(=O)[C@@H]3CNCCCO3)cc2)sc1C#N [Compound 10, (2S)—N-[(1S)-1-cyano-2-[4-(5-cyano-4-methyl-1,3-thiazol-2-yl)phenyl]ethyl]-1,4-oxazepane-2-carboxamide] | > 20 | > 2.5 nM | > 15 |
| N#C[C@H](Cc1cc2c(cc1F)-c1cc(C3COC3)c(F)cc1CO2)NC(=O)[C@@H]1CNCCCCO1 [Compound B10-B] | < 5 | 1 to 2.5 nM | 5 to 15 |
| N#C[C@H](Cc1ccc(-c2ccc(S(F)(F)(F)(F)F)cc2)cc1)NC(=O)[C@@H]1CNCCCO1 [Compound 6, (S)—N—((S)-1-cyano-2-(4′-(pentafluoro-16-sulfaneyl)-[1,1′-biphenyl]-4-yl)ethyl)-1,4-oxazepane-2-carboxamide] | > 20 | > 2.5 nM | > 15 |
